*1 amine or outer side, *2 acyl side, *3 side chain or, on linkers, in order; H or OH if unused. Where a SMILES comes first, the peptide text is derived from it. [ ]: non-standard residue; d: D form. dAla(ψthiazole) = C[C@@H](N[*:1])c1nc(C(=O)[*:2])cs1; Trp(4-OMe) = COc1cccc2[nH]cc(C[C@H](N)C(=O)O)c12; dAbu = CC[C@@H](N)C(=O)O; Dha = C=C(N)C(=O)O; Sar = CNCC(=O)O
Key:
P. aeruginosa EF-G1 = molecular target: T1, P. aeruginosa EF-G1 (Pseudomonas aeruginosa, UniProt Q9HWD2); assay: Co-crystal structure of EF-G1 with argyrin B; format: binding; conditions: PDB 4FN5, 2.9 Å
T1 construct: P. aeroginosa fusA1 encoding full-length EF-G was PCR amplified from pET28a-PaEFG-Nhis; made in house; host or cells: E. coli BL21 (DE3)
Method: BL21 (DE3) cells harboring pET28a-PaEFG-Nhis were grown in Terrific Broth containing 100 µg/ml kanamycin. EF-G1 expression was induced using 1 mM IPTG. Cell pellets were resuspended and lysed using a microfluidizer, after which ultracentrifugation was performed. Purification was done using NiNTA resin followed by removal of the N-terminal Histidine tag with thrombin protease. The protein was further purified using a Mono Q column and was then concentrated and loaded onto a HiLoad Superdex 200 26/60 column, exchanging the protein into 25 mM Tris-HCl pH 7.5, 150 mM NaCl and 1 mM TCEP. […] Sitting drop vapor diffusion method was used for crystallization, with the crystallization well containing 100 mM Tris-HCl pH 7.5, 18% PEG 3350 and 200 mM sodium nitrate, and the drop containing a 1∶1 volume of protein and crystallization solution. After crystals formed they were subsequently cryoprotected using the crystallization solution with the addition of 20% glycerol, followed by flash freezing directly into liquid nitrogen.
The data were measured from a single crystal maintained at 100°K, and the reflections were indexed, integrated, and scaled using autoPROC [27], [28]. The spacegroup of the complex is C2 with 1 molecule in the asymmetric unit. The structure was determined with PHASER [29] using molecular replacement methods with a starting model of Thermus thermophilus EF-G (PDB Code 2BM0). […]

yeast (BY4741, BYΔ8) = assay: Yeast susceptibility determination, wild-type and BYΔ8; format: cell-based, S. cerevisiae; conditions: for Activity against yeast (in words): rich medium with glucose
Method: Yeast strains used in this study are BY4741 [32] and strain BYΔ8, derived from BY4741 but deleted for eight genes involved in drug resistance (efflux pumps: snq2, pdr5, yor1; transcription factors: pdr1, pdr2, pdr3, yap1, yrm1). […] Starting OD600 was 0.1, total volume per well 120 µl. Plates were incubated at 30°C with 770 RPM orbital shaking.

HCT116 = assay: Cell viability (CellTiter-Glo), HCT116 with siRNA or mEF-G1 variants; format: cell-based, human; conditions: 7 days
Method: HCT116 (ATCC, CCL-247) and RKO (ATCC, CRL-2577) cell lines were maintained in a humidified incubator at 37°C and 5% CO2 in RPMI1640 supplemented with 10% FBS. Cell viability was determined using the CellTiter-Glo luminescent cell viability assay (Promega). […] Subsequently, 40 µl of CellTiter-Glo reagent was added to each well and luminescence recorded on an Envision plate reader (Perkin Elmer). Each treatment condition was tested in triplicate and compared to an equivalent volume of DMSO as control.
Non-targeting (NT) or GFM1 siRNA pools were obtained from Dharmacon (ON-TARGETplus SMART pool D-001810 and L-013685). HCT116 and RKO cells were reverse transfected in 6-well plates using RNAiMax (Invitrogen) and 25 nM siRNA. After 2 days, cells were harvested by trypsinization and re-plated into 6-well plates for western blot analysis or into 384-well plates for compound treatments and cell viability determination using CellTiter-Glo as described above.
The human GFM1 cDNA (encoding mEF-G1, Table 2) was mutagenized in pENTR221 (Invitrogen) using QuikChangeII XL site-directed mutagenesis (Stratagene). The following point mutations were introduced: C1355T (encoding S452L), C1481T (encoding S494F) and T2078A (encoding L693Q). The GFM1 cDNAs were then subcloned into the mammalian expression vector pLenti4/TO/V5 using LR clonase II (Invitrogen) and sequence-verified. The pLenti4 constructs were then co-transfected with a lentiviral plasmid mix (encoding LP1, LP2 and VSV-G) into 293T cells, and viral particles were harvested after 72 h and used to infect HCT116 and RKO cells. Stable cell lines were generated by selection with 400 µg/ml Zeocin and plated into 6-well plates for western blot analysis or into 384-well plates for compound treatments and cell viability determination using CellTiter-Glo as described above.

T1 sequence (Q9HWD2 whole entry): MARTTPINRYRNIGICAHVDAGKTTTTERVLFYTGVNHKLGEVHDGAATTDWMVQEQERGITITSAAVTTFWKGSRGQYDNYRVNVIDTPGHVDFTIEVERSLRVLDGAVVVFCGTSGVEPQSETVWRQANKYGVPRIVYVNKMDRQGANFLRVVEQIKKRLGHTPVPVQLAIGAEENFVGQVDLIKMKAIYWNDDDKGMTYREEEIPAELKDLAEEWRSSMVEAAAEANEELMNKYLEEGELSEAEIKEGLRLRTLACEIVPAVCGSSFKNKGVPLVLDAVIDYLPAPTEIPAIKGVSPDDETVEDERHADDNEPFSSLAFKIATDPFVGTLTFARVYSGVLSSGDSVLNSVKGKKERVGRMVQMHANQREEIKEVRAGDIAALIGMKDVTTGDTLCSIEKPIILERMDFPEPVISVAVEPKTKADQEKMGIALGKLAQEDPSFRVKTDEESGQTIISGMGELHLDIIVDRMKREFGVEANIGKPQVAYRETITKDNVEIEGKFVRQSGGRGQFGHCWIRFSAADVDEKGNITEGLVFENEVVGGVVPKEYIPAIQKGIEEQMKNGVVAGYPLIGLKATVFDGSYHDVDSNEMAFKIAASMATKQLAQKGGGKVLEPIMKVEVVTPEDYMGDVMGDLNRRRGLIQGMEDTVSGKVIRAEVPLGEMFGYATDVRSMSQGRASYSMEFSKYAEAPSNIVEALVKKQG

SMILES: C=C1NC(=O)CN(C)C(=O)CNC(=O)[C@H](Cc2c[nH]c3cccc(OC)c23)NC(=O)[C@H](Cc2c[nH]c3ccccc23)NC(=O)c2csc(n2)[C@@H](C)NC(=O)[C@@H](CC)NC1=O [argyrin B] (cyclo([dAbu][dAla(ψthiazole)]W[Trp(4-OMe)]G[Sar][Dha]))
- Binding site in co-crystal structure (P. aeruginosa EF-G1): bound at the interface of domains III and V
- Activity against yeast (in words) (yeast (BY4741, BYΔ8); BYΔ8 (strain CMB970, eight genes involved in efflux deleted)): inactive
- Inhibitory activity on glucose-grown yeast (in words) (yeast (BY4741, BYΔ8); glucose-grown yeast): lack of inhibitory activity
- Activity against yeast (in words) (yeast (BY4741, BYΔ8); wild-type yeast (BY4741)): inactive
- Lowering of IC50 by knock down of mEF-G1 (HCT116; HCT116, GFM1 siRNA, CellTiter Glo): circa 9.6 fold
- Decrease of susceptibility on expression of mEF-G1 L693Q (HCT116; HCT116, mEF-G1 L693Q): 4.7 fold
- Sensitivity change on expression of mEF-G1 S452L and S494F (in words) (HCT116; HCT116, mEF-G1 S452L and S494F): only marginal effects
- Sensitivity change on overexpression of mEF-G1 WT (in words) (HCT116; HCT116, mEF-G1 WT stable overexpression): did not alter the argyrin B-sensitivity
